According to paper PMC6980506, “Comparative pharmacokinetics and pharmacodynamics of the advanced Retinol-Binding Protein 4 antagonist in dog and cynomolgus monkey” (PLoS ONE, 2020):
Read-outs that look alike come from different tables or passages of the source.

Experiment: Single dose pharmacokinetic study in cynomolgus monkey
Type: in vivo
Description: Pharmacokinetic studies were conducted in male beagle dogs and male cynomolgus monkeys at SRI International, Menlo Park, CA. General procedures for animal care and housing were in accordance with the National Research Council (NRC) Guide for the Care and Use of Laboratory Animals (1996) and the Animal Welfare Standards incorporated in 9 CFR Part 3, 1991 and complied with guidelines set forth by the ARVO Animal Statement for the Use of Animals in Ophthalmic and Vision Research. During the course of the PK experiments, cynomolgus monkeys were individually housed in stainless steel primary enclosures in an AAALAC-accredited facility. Animals were fed a commercial monkey chow, and supplemental food was provided (fresh fruits, vegetables, seeds, and nuts). Reverse osmosis-purified drinking water was available at all times. Cynomolgus monkeys were maintained on a 12:12 hour light:dark cycle at the 64–84°F temperature and 30–70% humidity. Monkeys had access to enrichment opportunities (grooming devices, foraging devices, activity panels and mirrors) and were provided auditory stimuli and human interaction enrichment throughout the study. Blood samples were collected by venipuncture of a peripheral vein. Animals were acclimated to the squeeze back mechanism in their home cage by repeated, short periods of restraint during general husbandry procedures for at least 2 weeks prior to dosing. Animal were not removed from their cages for collection, and no anesthesia/analgesic agents were used for blood collection. […] For PK experiments, beagle dogs were individually housed in enclosed run (≥ 4 ft x 6 ft). Dogs were exposed to their daily ration of food, Harlan Teklad 2025C Certified Global 25% Protein Dog Diet. Water was provided from the public water supply (municipal tap water) ad libitum. Dogs were maintained on a 12:12 hour light:dark cycle at the 72–73°F temperature and 40–71% humidity. Every effort was made to minimize, if not eliminate, pain and suffering in all animals in this study. No restraining devices were used in blood collecting procedures. Dogs were gentle hand-held to restrain by trained technicians with the dogs foreleg extended for sample collection of blood from cephalic vein. Animals were awake during blood sample collection with no anesthesia/analgesic agents used, and positive reinforcement by the technician was provided following collection. […] All dogs were released back to the colony after the study was completed. Male beagle dogs and male cynomolgus monkey received a single i.v. dose of a test compound at 0.5 mg kg^−1 (dog) and 1 mg kg^−1 (monkey) or a single p.o. dose of a test compound of at 2 mg kg^−1 (dog) and 5 mg kg^−1 (monkey). The number of animals that was used in PK experiments is 3 per study group. Intravenous administration vehicle was 3% DMA/45% PEG300/12% ethanol/40% sterile water; p.o. vehicle was 2% Tween 80 in 0.9% saline. […] Blood samples were processed to plasma. Following protein extraction with acetonitrile, compound concentrations in plasma were measured by LC-MS/MS. The plasma drug level data were analyzed using WinNonlin software package; Model 201 (for i.v. bolus administration);was used for the analysis of i.v. data, and Model 200 (for extravascular administration) was used for the analysis of the p.o. data. Aliquots of pre-dose plasma samples, as well as aliquots of plasma PK samples, were used for the analysis of the plasmabiomarker, RBP4.
Administration to Non-Human Primates
II. MATERIALS AND METHODS

[1] = Cyno, 5.0 mg kg^−1 p.o., mean ± SD, n=3
[2] = male, cynomolgus monkey, plasma, iv, 1 mg/kg, non-human primate, iv 1.0 mg/kg, read-out: Plasma level, Individual animals
[3] = male, cynomolgus monkey, plasma, iv, 1 mg/kg, non-human primate, iv 1.0 mg/kg, read-out: Plasma level, Mean
[4] = male, cynomolgus monkey, plasma, po, 5 mg/kg, non-human primate, po 5 mg/kg, read-out: Plasma level, Individual animals
[5] = male, cynomolgus monkey, plasma, po, 5 mg/kg, non-human primate, po 5 mg/kg, read-out: Plasma level, Mean

In the case of `Cc1cc(C(=O)O)nc(N2C[C@H]3C[C@@H](c4ccccc4C(F)(F)F)C[C@H]3C2)n1` [BPN-14136], the “%F, bioavailability” value (Cyno, 5.0 mg kg^−1 p.o. vs 1.0 mg kg^−1 i.v.) is reported as 84.3 ± 24.8%, the AUCinf [1] is reported as 826.6 ± 243.1 µg·h/mL and the Cmax [1] is reported as 31500 ± 200 ng/mL. It also gave an AUC(0-inf) (male, cynomolgus monkey, plasma, iv, 1 mg/kg, Cyno, 1.0 mg kg^−1 i.v., mean ± SD, n=3) of 196 ± 42.2 µg·h/mL, a Cmax (male, cynomolgus monkey, plasma, iv, 1 mg/kg, Cyno, 1.0 mg kg^−1 i.v., mean ± SD, n=3, read-out: Cmax, maximum observed concentration at first time point) of 11400 ± 600 ng/mL and a concentration at 0.0083 hr [2] of 10900 ng/mL. The concentration at 0.0083 hr [3] was 11400 ng/mL, the concentration at 0.25 hr (male, cynomolgus monkey, plasma, iv, 1 mg/kg, non-human primate, iv 1.0 mg/kg, 0.25 hr, read-out: Plasma level, Individual animals) was 10500 ng/mL and the concentration at 0.25 hr (male, cynomolgus monkey, plasma, iv, 1 mg/kg, non-human primate, iv 1.0 mg/kg, 0.25 hr, read-out: Plasma level, Mean) was 10700 ng/mL. The concentration at 0.5 hr [2] was 9300 ng/mL, the concentration at 0.5 hr [3] was 9570 ng/mL and the concentration at 1 hr [2] was 9470 ng/mL. The concentration at 1 hr [3] was 9060 ng/mL, the concentration at 2 hr [2] was 8910 ng/mL and the concentration at 2 hr [3] was 8080 ng/mL. For the same compound, the concentration at 4 hr [2] was 7450 ng/mL, the concentration at 4 hr [3] was 7080 ng/mL and the concentration at 8 hr [2] was 6160 ng/mL. For the same compound, the concentration at 8 hr [3] was 5890 ng/mL, the concentration at 12 hr [2] was 4470 ng/mL and the concentration at 12 hr [3] was 4780 ng/mL. The concentration at 24 hr [2] was 2840 ng/mL, the concentration at 24 hr [3] was 2930 ng/mL and the concentration at 36 hr (male, cynomolgus monkey, plasma, iv, 1 mg/kg, non-human primate, iv 1.0 mg/kg, 36 hr, read-out: Plasma level, Mean) was 1670 ng/mL. For the same compound, the concentration at 48 hr (male, cynomolgus monkey, plasma, iv, 1 mg/kg, non-human primate, iv 1.0 mg/kg, 48 hr, read-out: Plasma level, Mean) was 1050 ng/mL, the AUC(0-t) (male, cynomolgus monkey, plasma, iv, Cyno, 1.0 mg kg^−1 i.v., mean ± SD, n=3) was 171 ± 27 µg·h/mL and the clearance (male, cynomolgus monkey, plasma, iv, Cyno, 1.0 mg kg^−1 i.v., mean ± SD, n=3, read-out: CL, total body clearance (converted)) was 5.25 mL/h/kg. For the same compound, the half-life (male, cynomolgus monkey, plasma, iv, Cyno, 1.0 mg kg^−1 i.v., mean ± SD, n=3, read-out: T1/2, apparent terminal half-life (converted)) was 15.6 ± 3.3 h, the Vd (male, cynomolgus monkey, plasma, iv, Cyno, 1.0 mg kg^−1 i.v., mean ± SD, n=3, read-out: Vss, volume of distribution at steady state) was 0.113 ± 0.004 L/kg and the bioavailability (male, cynomolgus monkey, plasma, oral, 5 mg kg^−1, Cyno, 5.0 mg kg^−1 p.o. vs 1.0 mg kg^−1 i.v., read-out: %F, bioavailability) was roughly 84%. For the same compound, the AUC(0-inf) (male, cynomolgus monkey, plasma, po, 5 mg/kg, Cyno, 5.0 mg kg^−1 p.o., mean ± SD, n=3) was 676 µg·h/mL, the Cmax (male, cynomolgus monkey, plasma, po, 5 mg/kg, Cyno, 5.0 mg kg^−1 p.o., mean ± SD, n=3, read-out: Cmax) was 31400 ng/mL and the concentration at 0.25 hr (male, cynomolgus monkey, plasma, po, 5 mg/kg, non-human primate, po 5 mg/kg, 0.25 hr, read-out: Plasma level, Individual animals) was 9720 ng/mL. The concentration at 0.25 h (male, cynomolgus monkey, plasma, po, 5 mg/kg, non-human primate, po 5 mg/kg, 0.25 hr, read-out: Plasma level, Mean) was 11100 ng/mL, the concentration at 0.5 h [4] was 28100 ng/mL and the concentration at 0.5 h [5] was 22200 ng/mL. It also gave a concentration at 1 hr [4] of 24600 ng/mL, a concentration at 1 hr [5] of 29800 ng/mL and a concentration at 2 hr [4] of 32400 ng/mL. For the same compound, the concentration at 2 hr [5] was 31200 ng/mL.
